Results: paper PMC10397291, “Molecular pathway and structural mechanism of human oncochannel TRPV6 inhibition by the phytocannabinoid tetrahydrocannabivarin” (Nature Communications, 2023)
“Also recorded” adds a separate entry of the source.

Columns and labels:
[1] = target: full-length wild-type human TRPV6 with C-terminal streptavidin affinity tag and eGFP (FSEC construct) (human); experiment: SEC; fluorescence-detection SEC (FSEC) of eGFP-tagged channels; HEK cells solubilised in 1% DDM, 0.1% CHS, supernatant on Superose 6 10/300 GL in 1 mM DDM, 20 mM Tris-HCl pH 8.0, 150 mM NaCl, 1 mM βME
[2] = target: C-terminally truncated human TRPV6 (hTRPV6-CtD, residues 1–666 of wild-type channel) (human); experiment: cryo-EM structure; hTRPV6-CtD in cNW30 nanodiscs with soybean lipids, 114 µM THCV; 150 mM NaCl, 20 mM Tris-HCl pH 8.0, 1 mM βME; C4 symmetry, 2.79 Å
[3] = test system: TRPV5; parameters: method as in PMID 30170189; settings: at the tested doses; cited from earlier work
[4] = test system: TRPV6; settings: at the tested doses; cited from earlier work
[5] = test system: TRPV6; parameters: method as in doi:10.1038/nature17975; settings: ref doi:10.1038/nature17975; cited from earlier work
[6] = target: T1, L490W mutant hTRPV6 (Homo sapiens, UniProt Q9H1D0, L530W); experiment: Fura-2 AM Ca2+ uptake, L490W mutant hTRPV6; assay type: cell-based; settings: L490W
T1 construct: Full-length wild-type or mutant human TRPV6 was expressed in HEK 293S cells as described above; expressed in transfected cells; host or cells: HEK 293S GnTI- (baculovirus/BacMam transduction)
T1 sequence (Q9H1D0 41-765 L530W limits assumed): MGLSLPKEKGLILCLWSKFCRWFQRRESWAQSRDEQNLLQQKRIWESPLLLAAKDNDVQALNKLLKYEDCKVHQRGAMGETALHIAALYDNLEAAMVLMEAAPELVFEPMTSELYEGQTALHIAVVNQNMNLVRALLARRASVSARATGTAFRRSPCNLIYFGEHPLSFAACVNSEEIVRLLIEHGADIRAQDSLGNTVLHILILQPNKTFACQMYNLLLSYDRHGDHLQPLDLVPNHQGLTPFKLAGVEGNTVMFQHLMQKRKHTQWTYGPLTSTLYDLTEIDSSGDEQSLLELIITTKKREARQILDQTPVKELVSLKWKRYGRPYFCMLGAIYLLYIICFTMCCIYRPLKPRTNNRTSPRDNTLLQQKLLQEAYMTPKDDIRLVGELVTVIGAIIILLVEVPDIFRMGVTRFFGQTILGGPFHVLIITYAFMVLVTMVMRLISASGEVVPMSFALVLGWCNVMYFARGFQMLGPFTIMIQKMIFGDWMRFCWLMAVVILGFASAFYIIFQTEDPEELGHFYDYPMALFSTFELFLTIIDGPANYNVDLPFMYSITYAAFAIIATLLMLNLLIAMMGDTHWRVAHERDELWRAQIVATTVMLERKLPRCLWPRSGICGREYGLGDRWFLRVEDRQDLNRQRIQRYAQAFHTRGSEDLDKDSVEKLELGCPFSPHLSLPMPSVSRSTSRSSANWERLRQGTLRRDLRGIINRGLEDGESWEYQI

[7] = target: full-length human TRPV6 L490W mutant with C-terminal streptavidin affinity tag and eGFP (FSEC construct) (human); experiment: SEC; fluorescence-detection SEC (FSEC) of eGFP-tagged channels; HEK cells solubilised in 1% DDM, 0.1% CHS, supernatant on Superose 6 10/300 GL in 1 mM DDM, 20 mM Tris-HCl pH 8.0, 150 mM NaCl, 1 mM βME

full-length wild-type human TRPV6 with C-terminal streptavidin affinity tag and eGFP (FSEC construct) (natural protein)
stoichiometry N [1]: 4

C-terminally truncated human TRPV6 (hTRPV6-CtD, residues 1–666 of wild-type channel) (domain or fragment)
stoichiometry N [2]: 4

C=C(C)[C@@H]1CCC(C)=C[C@H]1c1c(O)cc(CCCCC)cc1O [CBD, cannabidiol]
antagonist effect on TRPV5 [3]: ineffective | antagonist effect on TRPV6 [4]: Lack of CBD effect; also recorded: do not modulate; also recorded: ineffective

[Gd+3] [Gd3+]
block of the calcium uptake signal [5]: full block of the signal | block of Ca2+ uptake ([6]; 100 µM Gd3+): complete block | inhibition of calcium uptake ([6]; 100 mM Gd3+ as printed, n = 3): complete inhibition

full-length human TRPV6 L490W mutant with C-terminal streptavidin affinity tag and eGFP (FSEC construct) (natural protein)
stoichiometry N [7]: 4
